Data on 21 compounds can be found in patent US9895346B2, “Applications of substituent benzyloxy group containing ether compounds for preparing antitumor drugs” (Sinochem Corporation, priority 2013, dated 2018).

Test [1] deals with lung cancer cell line H520. Put plainly: In vitro cell inhibition assay (crystal violet), lung cancer H520. It counts as cell-based, human. From the text: (§1) In vitro Cell inhibition assay is as follows:
(§2) The human cancer cell lines used for this assay were bladder cancer J82, T24, prostate cancer LNCap, PC-3, lung cancer A549, H157, H460, H520, colon cancer HCT8, HCT116, RkO, and leukemia HL-60, etc.
(§3) In vitro cell culture technology was selected for the determination of inhibition rate bladder cancer cell lines J82 and T24, prostate cancer cell lines LNCap and PC-3, lung cancer cell lines A549, H157, H460 and H520. 1000 to 3000 cells were inoculated to 24-well plate, followed by addition of 1 mL culture medium well known to researchers in this field to each well, the cells were cultured in 5% incubator for 24 hours at 37° C., then the different concentration compounds and controls were added to each well. It should be noted that the added volume is not more than 0.5% of total volume. After completion of addition, the cells continued being cultured in incubator for one week, the culture medium was removed and washed by cold PBS of 1 mL once, and then fixed for 10 minutes at room temperature with 1% formalin, followed by wash with PBS of 1 mL. After fixation, stain was carried out with 0.1% crystal violet for 30 minutes. 0.1% crystal violet was recycled. The stained cells were washed gently with deionized water, dried at room temperature and kepted. The inhibition rate was calculated according to the foiling equation. The controls are Selumetinib (AZD6244), Gefitinib, Cisplatin. Inhibition rate=number of left cells each treatment/number of left cells of untreated control×100%

For test [2], the system named is lung cancer cell line A549. Kind of test: In vitro cell inhibition assay (crystal violet), lung cancer A549. It is filed as cell-based, human.
Description: as §1, §2, §3

Test [3] has as its system lung cancer cell line H460. Kind of test: In vitro cell inhibition assay (crystal violet), lung cancer H460. It counts as cell-based, human.
Description: as §1, §2, §3

The test system of test [4] is human leukemia HL-60 cells. Kind of test: Proliferation inhibition of human leukemia HL-60 cells, MTT method. It is filed as cell-based. The note with it: 48 h incubation, OPTI-MEM medium. Here is the method: The inhibition rate of human leukemia HL-60 cells was evaluated by regular MTT method. The human leukemia HL-60 cells were picked up from cell incubator, after washed for twice using PBS, cells were digested by 0.25% trypsin, and then add medium to terminate the digestion. After cells were collected using centrifuge and re-suspended, counting cells under inverted microscope and adding medium to make a density which was 5×10^4 cells/mL. After 100 μL aliquots were added to each well of 96-well microtiter plates, cells were cultured in 5% incubator for overnight at 37° C., then the different concentration compounds were added to each well. After incubation for 48 h, MTT solution was added to each well and plates were then incubated for 4 h. The MTT tetrazolium was reduced to formazan by living cells. Then the formazan crystals were dissolved though adding DMSO to each well. The absorbance was read at 570 nm with a microplate reader.
In general terms: Tetrazolium assays rely on reduction of a dye to a coloured formazan, in cell work by metabolically active cells.

Turning to `COC=C(C(=O)OC)c1ccccc1COc1ccc2c(C)c(Cl)c(=O)oc2c1` [28-12], the “Inhibition rate on human cancer cells” value in test [1] (H520, 1.0 μM) was determined as 50%; in test [1] (H520, 2.5 μM), 100%; in test [1] (H520, 5.0 μM), 100%; in test [2] (A549, 1.0 μM), 80%; in test [2] (A549, 2.5 μM), 95%; in test [2] (A549, 5.0 μM), 100%. The “Inhibition rate on human cancer cells” value in test [3] (H460, 1.0 μM) was found to be 75%; in test [3] (H460, 2.5 μM), 90%; in test [3] (H460, 5.0 μM), 95%.

For the compound `COC=C(C(=O)OC)c1ccccc1COc1ccc2c(-c3ccc(Cl)cc3)cc(=O)oc2c1` [28-29], the “Inhibition rate on human cancer cells” value in test [1] (H520, 0.25 μM) is given as 30%; in test [1] (H520, 0.5 μM) it was 40%; in test [1] (H520, 1.0 μM), 70%; in test [1] (H520, 2.5 μM), 70%; in test [1] (H520, 5.0 μM) it was 100%; in test [2] (A549, 5.0 μM) it was 95%. Moreover, the “Inhibition rate on human cancer cells” value in test [3] (H460, 1.0 μM) turned out to be 70%; in test [3] (H460, 2.5 μM), 90%; in test [3] (H460, 5.0 μM), 95%.

Regarding `CCc1cc(=O)oc2cc(OCc3ccccc3C(=COC)C(=O)OC)ccc12` [28-33], the “Inhibition rate on human cancer cells” value is 90% in test [1] (H520, 2.5 μM); 100% in test [1] (H520, 5.0 μM); 80% in test [2] (A549, 1.0 μM); 95% in test [2] (A549, 2.5 μM); 99% in test [2] (A549, 5.0 μM); 90% in test [3] (H460, 1.0 μM). Moreover, the “Inhibition rate on human cancer cells” value in test [3] (H460, 2.5 μM) stood at 95%; in test [3] (H460, 5.0 μM), 95%.

`CCCc1cc(=O)oc2cc(OCc3ccccc3C(=COC)C(=O)OC)ccc12` [28-34]: the “Inhibition rate on human cancer cells” value in test [1] (H520, 0.5 μM) is 70%; in test [1] (H520, 1.0 μM), 99%; in test [1] (H520, 2.5 μM) it was 100%; in test [1] (H520, 5.0 μM), 100%; in test [2] (A549, 1.0 μM), 90%; in test [2] (A549, 2.5 μM), 95%. For the same compound, the “Inhibition rate on human cancer cells” value in test [2] (A549, 5.0 μM) was 100%; in test [3] (H460, 1.0 μM), 93%; in test [3] (H460, 2.5 μM), 95%; in test [3] (H460, 5.0 μM), 95%.

`COC=C(C(=O)OC)c1ccccc1COc1ccc2c(-c3ccc(C(F)(F)F)cc3)cc(=O)oc2c1` [28-41]: the “Inhibition rate on human cancer cells” value in test [1] (H520, 5.0 μM) was 70%; in test [3] (H460, 2.5 μM) it was 75%; in test [3] (H460, 5.0 μM) it was 85%.

`COC=C(C(=O)OC)c1ccccc1COc1ccc2c(-c3ccccc3)cc(=O)oc2c1` [28-52]: the “Inhibition rate on human cancer cells” value came out at 70% in test [1] (H520, 0.25 μM); 100% in test [1] (H520, 0.5 μM); 100% in test [1] (H520, 1.0 μM); 100% in test [1] (H520, 2.5 μM); 100% in test [1] (H520, 5.0 μM); 90% in test [2] (A549, 0.5 μM). Besides, the “Inhibition rate on human cancer cells” value amounted to 95% in test [2] (A549, 1.0 μM); 100% in test [2] (A549, 2.5 μM); 100% in test [2] (A549, 5.0 μM); 60% in test [3] (H460, 0.25 μM); 90% in test [3] (H460, 0.5 μM); 100% in test [3] (H460, 1.0 μM). Also, the “Inhibition rate on human cancer cells” value in test [3] (H460, 2.5 μM) is given as 100%; in test [3] (H460, 5.0 μM), 100%.

Take `CCCCCCc1c(C)c2ccc(OCc3ccccc3C(=COC)C(=O)OC)cc2oc1=O` [28-75]: the “Inhibition rate on human cancer cells” value in test [1] (H520, 2.5 μM) was 80%; in test [1] (H520, 5.0 μM), 100%; in test [2] (A549, 5.0 μM), 90%; in test [3] (H460, 1.0 μM) it was 70%; in test [3] (H460, 2.5 μM), 90%; in test [3] (H460, 5.0 μM) it was 95%.

Take `COC=C(C(=O)OC)c1ccccc1COc1ccc2c3c(c(=O)oc2c1C)CCC3` [28-126]: the “Inhibition rate on human cancer cells” value turned out to be 70% in test [1] (H520, 1.0 μM); 90% in test [1] (H520, 2.5 μM); 95% in test [1] (H520, 5.0 μM); 85% in test [2] (A549, 2.5 μM); 90% in test [2] (A549, 5.0 μM); 90% in test [3] (H460, 2.5 μM). Moreover, in test [3] (H460, 5.0 μM), the “Inhibition rate on human cancer cells” value came out at 95%.

On to `COC=C(C(=O)OC)c1ccccc1COc1ccc2c(-c3ccccc3Cl)cc(=O)oc2c1` [28-132], for which the “Inhibition rate on human cancer cells” value in test [2] (A549, 5.0 μM) stood at 90%.

As for `COC=C(C(=O)OC)c1ccccc1COc1ccc2c(-c3cccc(Cl)c3)cc(=O)oc2c1` [28-133], the “Inhibition rate on human cancer cells” value is listed as 100% in test [2] (A549, 2.5 μM) and 100% in test [2] (A549, 5.0 μM).

As for `COC=C(C(=O)OC)c1ccccc1COc1ccc2c(-c3ccc(Br)cc3)cc(=O)oc2c1` [28-134], the “Inhibition rate on human cancer cells” value in test [2] (A549, 2.5 μM) came out at 100%; in test [2] (A549, 5.0 μM) it was 100%.

Take `COC=C(C(=O)OC)c1ccccc1COc1ccc2c(-c3ccc(C#N)cc3)cc(=O)oc2c1` [28-135]: the “Inhibition rate on human cancer cells” value in test [2] (A549, 5.0 μM) was 80%.

As to `COC=C(C(=O)OC)c1ccccc1COc1ccc2c(-c3ccc(C)cc3)cc(=O)oc2c1` [28-136], the “Inhibition rate on human cancer cells” value was determined as 100% in test [2] (A549, 2.5 μM) and 100% in test [2] (A549, 5.0 μM).

Turning to `COC=C(C(=O)OC)c1ccccc1COc1ccc2c(-c3ccc(OC)cc3)cc(=O)oc2c1` [28-137], the “Inhibition rate on human cancer cells” value worked out at 100% in test [2] (A549, 2.5 μM) and 100% in test [2] (A549, 5.0 μM).

For the compound `COC=C(C(=O)OC)c1ccccc1COc1ccc2c(C)cc(=O)oc2c1C` [Compound 28-3], the figures for the “Proliferation inhibitory effect on human leukemia HL-60 cell (%)” value (“Proliferation inhibitory effect … (%)” for short) in test [4] (concentration 1 μM), in test [4] (concentration 10 μM) and in test [4] (concentration 100 μM) were 4.1%, 33.4% and 58.8%, respectively.

In the case of `COC=C(C(=O)OC)c1ccccc1COc1ccc2c(C)c(C)c(=O)oc2c1C` [Compound 28-6], the “Proliferation inhibitory effect … (%)” value in test [4] (concentration 1 μM) was 48.2%; in test [4] (concentration 10 μM), 53.0%; in test [4] (concentration 100 μM), 52.0%.

As to `CCc1c(C)c2ccc(OCc3ccccc3C(=COC)C(=O)OC)cc2oc1=O` [Compound 28-18], the “Inhibition rate on human cancer cells” value is reported as 50% in test [1] (H520, 0.25 μM); 95% in test [1] (H520, 0.5 μM); 100% in test [1] (H520, 1.0 μM); 100% in test [1] (H520, 2.5 μM); 100% in test [1] (H520, 5.0 μM); 90% in test [2] (A549, 0.5 μM). For the same compound, the “Inhibition rate on human cancer cells” value in test [2] (A549, 1.0 μM) amounted to 100%; in test [2] (A549, 2.5 μM), 100%; in test [2] (A549, 5.0 μM), 100%; in test [3] (H460, 0.25 μM), 80%; in test [3] (H460, 0.5 μM), 90%; in test [3] (H460, 1.0 μM) it was 95%. The “Inhibition rate on human cancer cells” value in test [3] (H460, 2.5 μM) came to 95%; in test [3] (H460, 5.0 μM) it was 95%.

For `COC=C(C(=O)OC)c1ccccc1COc1ccc2cc(C#N)c(=O)oc2c1` [Compound 28-24], the “Proliferation inhibitory effect … (%)” value was determined as 10.8% in test [4] (concentration 1 μM), 44.5% in test [4] (concentration 10 μM) and 86.7% in test [4] (concentration 100 μM).

Regarding `COC=C(C(=O)OC)c1ccccc1COc1ccc2c(-c3ccc(F)cc3)cc(=O)oc2c1` [Compound 28-38], the “Proliferation inhibitory effect … (%)” value in test [4] (concentration 1 μM) stood at 77.5%; in test [4] (concentration 10 μM), 72.9%; in test [4] (concentration 100 μM) it was 63.7%.

For `COC=C(C(=O)OC)c1ccccc1COc1ccc2c(C)c(Cc3ccccc3)c(=O)oc2c1` [Compound 28-68], the “Proliferation inhibitory effect … (%)” value in test [4] (concentration 1 μM) came to 54.6%; in test [4] (concentration 10 μM), 62.0%; in test [4] (concentration 100 μM), 84.4%.

In the case of `COC=C(C(=O)OC)c1ccccc1COc1ccc2c(C)c(C(C)C)c(=O)oc2c1` [Compound 28-71], the “Proliferation inhibitory effect … (%)” value stood at 40.9% in test [4] (concentration 1 μM), 48.2% in test [4] (concentration 10 μM) and 50.3% in test [4] (concentration 100 μM).
